This is an account of results in patent US9458137B2, “Substituted indol-5-ol derivatives and their therapeutical applications” (NantBioScience, Inc., priority 2012, dated 2016).

Structures are written as SMILES.

The test system of one experiment is c-RAF(h). The experiment is described as follows: Kinase panel activity. In kind it is biochemical, human. Conditions: 0.1 μM, ATP Km. The method, then: (§1) The effect of NTW-3475 on kinase activity was tested for a wide range of kinases and is shown in Table 2: Summary Sheet, Activity % ATP Concentration: Km
Another experiment deals with MLCK(h). The experiment is described as follows: Kinase panel activity. In kind it is biochemical, human. The settings on record: 0.1 μM, ATP Km. The protocol: as §1
Experiment [1] concerns AN3 human endometrial carcinoma carcinoma xenograft. The experiment is described as follows: AN3 endometrial carcinoma xenograft. In kind it is in vivo, nude mouse. Conditions: AN3 xenograft. The source says: This example assesses NTW-3475's anti-tumor activity using a scid mouse xenograft models for leukemias and nude mouse xenograft models of endometrial, pancreatic and thyroid carcinomas. NTW-3475 combination therapy was also studied in murine xenografts.
FIGS. 39-41 depict the results of various concentrations of NTW-3456 on the AN3 nude mouse/xenograft model of endometrial carcinoma.

A further experiment has as its system CK1(y). Briefly: Kinase panel activity. The experiment is classed as biochemical, yeast. The settings on record: 0.1 μM, ATP Km. The protocol:
as §1

Experiment [2] concerns human MIAPaCa-2 pancreatic carcinoma xenograft. Briefly: MIAPaCa-2 pancreatic carcinoma xenograft. The experiment is classed as in vivo, athymic nude-Faxn1 mice. The protocol: The objective of the third study was to evaluate antitumor activities of novel multiple-kinase inhibitor NTW-3475 in human MIAPaCa-2 pancreatic carcinoma xenograft in athymic nude-Faxn1 mice.
Four animals were randomly assigned to study groups. Each animal was weighed, and then injected subcutaneously in the left and right flank area with 0.1 ml of 5.0×10^7 MIAPaCa-2 cells per mL.
Each test or control animal was on a 5-day on, two-day off for two cycles treatment schedule with negative control vehicle, positive control Abraxane at 20 mg/kg or 25, 50 mg/kg of NTW-3475. Tumor growth was measured with a digital hand held caliper twice weekly (once tumor emerges) prior to the first dosing and then two to three times weekly until euthanized.
FIGS. 42-44 depict the results of various concentrations of NTW-3456 on a nude mouse/xenograft the MIAPaCa-2 model of pancreatic carcinoma.
FIGS. 45 and 46 depict the results of various concentrations of NTW-3456, with or without Abraxane on a MiaPaCa-2 model of pancreatic carcinoma.

Experiment [3] has as its system human MV411 human acute myelogenous leukemia (AML) xenograft. In kind it is in vivo, SCID mice. Conditions: 25, 50 mg/kg, 5-day on, two-day off for two cycles; female SCID mice. The protocol: The objective of the first study was to evaluate antitumor activities of the novel multiple-kinase inhibitor NTW-3475 against human MV411 human acute myelogenous leukemia (AML) xenograft model in female SCID mice.
Four or six animals were randomly assigned to each study group. Each animal was injected subcutaneously in the left and right flank area with 0.1 ml of 1.0×10^8 MV411 cells per mL
Each test or control animal was placed on a 5-day on, two-day off for two cycles of vehicle negative control or 25, 50 mg/kg of NTW-3475. Tumor growth was measured with a digital hand held caliper twice weekly (once tumor emerges) prior to the first dosing and then two to three times weekly until euthanized. Animals were weighed prior to tumor cell injection, prior to dosing, two to three times weekly with tumor growth measurements, and prior to euthanasia.
FIGS. 27-32 depict the results of various concentrations of NTW-3456 on tumor growth in scid mouse/xenograft model of AML using MV411 cells. […] This invention is characterized as it is here was a correlation between the inhibition of the pFLT3 kinase and growth control.

For another experiment, the target named is T1, Src(T341M)(h) (Homo sapiens, UniProt P12931, T341M).
T1 construct: purchased Millipore (KinaseProfiler service)
Briefly: Kinase panel activity. In kind it is biochemical. Conditions: 0.1 μM, ATP Km. The protocol:
as §1

The target of a further experiment is IRAK4(h) (Homo sapiens, UniProt Q9NWZ3). Briefly: Kinase panel activity. In kind it is biochemical. The settings on record: 0.1 μM, ATP Km. The protocol: as §1
Another experiment deals with NEK11(h) (Homo sapiens, UniProt Q8NG66). Briefly: Kinase panel activity. The settings on record: 0.1 μM, ATP Km. In kind it is biochemical. The method, then:
as §1

The next experiment concerns the target T2, SRPK2(h) (Homo sapiens, UniProt P78362).
T2 construct: purchased Millipore (KinaseProfiler service)
Briefly: Kinase panel activity. The experiment is classed as biochemical. The settings on record: 0.1 μM, ATP Km. The method, then: as §1

In a further experiment the target is LKB1(h) (Homo sapiens, UniProt Q15831). The experiment is described as follows: Kinase panel activity. The settings on record: 0.1 μM, ATP Km. In kind it is biochemical. The method, then: as §1
Another experiment addresses T3, SGK3(h) (Homo sapiens, UniProt Q96BR1).
T3 construct: purchased Millipore (KinaseProfiler service)
The experiment is described as follows: Kinase panel activity. In kind it is biochemical. Conditions: 0.1 μM, ATP Km. The method, then:
as §1

For another experiment, the target named is cKit(V654A)(h) (Homo sapiens, UniProt P10721, V654A). Briefly: Kinase panel activity. The experiment is classed as biochemical. The settings on record: 0.1 μM, ATP Km. The protocol: as §1
The target in another experiment is Ab1(m) (Mus musculus, UniProt P00520). Briefly: Kinase panel activity. The experiment is classed as biochemical. Conditions: 0.1 μM, ATP Km. The method, then: as §1
In the next experiment the target is T4, SAPK2b(h) (Homo sapiens, UniProt Q15759).
T4 construct: purchased Millipore (KinaseProfiler service)
The experiment is described as follows: Kinase panel activity. In kind it is biochemical. Conditions: 0.1 μM, ATP Km. The method, then: as §1

For the next experiment, the target named is CDK1/cyclinB(h) (Homo sapiens, UniProt P06493). Briefly: Kinase panel activity. The experiment is classed as biochemical. The settings on record: 0.1 μM, ATP Km. The method, then: as §1
The target of the next experiment is T5, EphB2(h) (Homo sapiens, UniProt P29323).
T5 construct: purchased Millipore (KinaseProfiler service)
The experiment is described as follows: Kinase panel activity. In kind it is biochemical. The settings on record: 0.1 μM, ATP Km. The protocol:
as §1

In the next experiment the target is PhKγ2(h) (Homo sapiens, UniProt P15735). The experiment is described as follows: Kinase panel activity. The experiment is classed as biochemical. The settings on record: 0.1 μM, ATP Km. The method, then:
as §1

A further experiment has as its target T6, STK33(h) (Homo sapiens, UniProt Q9BYT3).
T6 construct: purchased Millipore (KinaseProfiler service)
Briefly: Kinase panel activity. The experiment is classed as biochemical. Conditions: 0.1 μM, ATP Km. The method, then: as §1

The target of a further experiment is Lck(h) (Homo sapiens, UniProt P06239). Briefly: Kinase panel activity. In kind it is biochemical. Conditions: 0.1 μM, ATP Km. The protocol: as §1
A further experiment concerns the target T7, MKK7β(h) (Homo sapiens, UniProt O14733).
T7 construct: purchased Millipore (KinaseProfiler service)
Briefly: Kinase panel activity. In kind it is biochemical. Conditions: 0.1 μM, ATP Km. The method, then: as §1

For experiment [4], the system named is human K562 chronic myelogenous leukemia (CML) xenograft. Briefly: K562 CML xenograft model. The experiment is classed as in vivo, SCID mice. The settings on record: 5-day on, two-day off for two cycles; female SCID mice. The method, then:
The objective of the second study was to evaluate antitumor activities of novel multiple-kinase inhibitor NTW-3475 in human K562 chronic myelogenous leukemia (CML) xenograft model in female SCID mice.
Four to six animals were randomly assigned to study groups. Each animal was weighed, and then injected subcutaneously in the left and right flank area with 0.1 ml of 8.0×10^7 K562 cells per mL.
Each test or control animal was on a 5-day on, two-day off for two cycles treatment schedule. Tumor growth was measured with a digital hand held caliper twice weekly (once tumor emerges) prior to the first dosing and then two to three times weekly until euthanized. Animals were weighed prior to tumor cell injection, prior to dosing, two to three times weekly with tumor growth measurements, and prior to euthanasia.
FIGS. 34 and 35 depict the results of various concentrations of NTW-3456 on a scid mouse/xenograft model of CML using K562 cells.

cKit(V654A)(h), sequence (P10721 26-976 V654A): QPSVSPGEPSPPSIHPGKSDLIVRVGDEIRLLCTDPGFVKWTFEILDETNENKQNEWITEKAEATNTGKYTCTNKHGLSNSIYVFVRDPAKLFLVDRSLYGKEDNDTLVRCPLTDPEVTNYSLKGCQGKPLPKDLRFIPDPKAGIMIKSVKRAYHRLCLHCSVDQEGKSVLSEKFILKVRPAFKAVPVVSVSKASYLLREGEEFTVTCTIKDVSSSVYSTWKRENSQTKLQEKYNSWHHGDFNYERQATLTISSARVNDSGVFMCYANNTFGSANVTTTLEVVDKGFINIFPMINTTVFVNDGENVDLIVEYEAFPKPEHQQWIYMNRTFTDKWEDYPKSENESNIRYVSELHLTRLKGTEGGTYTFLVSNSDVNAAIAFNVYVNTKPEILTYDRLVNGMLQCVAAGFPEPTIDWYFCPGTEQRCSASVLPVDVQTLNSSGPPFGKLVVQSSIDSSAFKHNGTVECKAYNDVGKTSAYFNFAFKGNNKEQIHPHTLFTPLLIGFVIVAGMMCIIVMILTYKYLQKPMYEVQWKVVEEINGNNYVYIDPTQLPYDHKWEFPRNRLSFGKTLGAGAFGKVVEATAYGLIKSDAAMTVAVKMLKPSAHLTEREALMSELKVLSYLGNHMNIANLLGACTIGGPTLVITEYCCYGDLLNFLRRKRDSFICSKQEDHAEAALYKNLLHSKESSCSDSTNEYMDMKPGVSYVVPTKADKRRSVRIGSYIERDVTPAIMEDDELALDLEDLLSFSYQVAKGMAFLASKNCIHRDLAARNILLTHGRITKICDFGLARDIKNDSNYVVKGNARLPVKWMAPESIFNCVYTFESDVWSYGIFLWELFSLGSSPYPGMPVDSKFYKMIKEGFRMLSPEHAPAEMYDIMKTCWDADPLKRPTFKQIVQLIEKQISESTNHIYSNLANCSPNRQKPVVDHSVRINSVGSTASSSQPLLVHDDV
NEK11(h), sequence (Q8NG66 whole entry): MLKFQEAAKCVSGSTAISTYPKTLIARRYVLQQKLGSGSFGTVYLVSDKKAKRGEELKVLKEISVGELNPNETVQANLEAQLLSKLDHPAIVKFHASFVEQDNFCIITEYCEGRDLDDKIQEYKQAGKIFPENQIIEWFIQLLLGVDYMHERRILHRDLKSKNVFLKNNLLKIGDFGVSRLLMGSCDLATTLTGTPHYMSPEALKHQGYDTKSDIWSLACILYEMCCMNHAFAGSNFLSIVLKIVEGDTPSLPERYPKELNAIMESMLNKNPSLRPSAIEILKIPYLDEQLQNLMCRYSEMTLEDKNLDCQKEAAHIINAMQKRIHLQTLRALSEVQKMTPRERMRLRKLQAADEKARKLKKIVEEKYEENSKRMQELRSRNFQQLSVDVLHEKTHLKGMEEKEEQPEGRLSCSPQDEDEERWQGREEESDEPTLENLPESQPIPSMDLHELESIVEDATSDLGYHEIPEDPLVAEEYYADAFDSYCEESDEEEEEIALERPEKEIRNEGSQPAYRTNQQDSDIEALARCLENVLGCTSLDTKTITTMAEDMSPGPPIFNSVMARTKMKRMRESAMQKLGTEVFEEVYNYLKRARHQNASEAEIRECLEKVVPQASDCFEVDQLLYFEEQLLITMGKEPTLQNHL
Lck(h), sequence (P06239 whole entry): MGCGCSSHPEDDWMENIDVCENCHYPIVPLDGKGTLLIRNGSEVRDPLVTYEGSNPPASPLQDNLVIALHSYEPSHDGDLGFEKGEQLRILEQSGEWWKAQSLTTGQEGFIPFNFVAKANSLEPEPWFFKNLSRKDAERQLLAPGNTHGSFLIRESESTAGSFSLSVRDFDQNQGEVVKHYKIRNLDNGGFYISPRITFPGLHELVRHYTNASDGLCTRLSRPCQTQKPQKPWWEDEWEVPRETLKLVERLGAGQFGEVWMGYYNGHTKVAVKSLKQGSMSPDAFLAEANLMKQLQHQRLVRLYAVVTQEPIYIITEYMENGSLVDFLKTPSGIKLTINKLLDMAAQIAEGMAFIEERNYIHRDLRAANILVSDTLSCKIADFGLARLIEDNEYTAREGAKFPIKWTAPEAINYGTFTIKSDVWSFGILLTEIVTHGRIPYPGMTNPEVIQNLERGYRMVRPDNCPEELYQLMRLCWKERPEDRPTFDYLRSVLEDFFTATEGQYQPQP
T2 sequence (P78362 whole entry): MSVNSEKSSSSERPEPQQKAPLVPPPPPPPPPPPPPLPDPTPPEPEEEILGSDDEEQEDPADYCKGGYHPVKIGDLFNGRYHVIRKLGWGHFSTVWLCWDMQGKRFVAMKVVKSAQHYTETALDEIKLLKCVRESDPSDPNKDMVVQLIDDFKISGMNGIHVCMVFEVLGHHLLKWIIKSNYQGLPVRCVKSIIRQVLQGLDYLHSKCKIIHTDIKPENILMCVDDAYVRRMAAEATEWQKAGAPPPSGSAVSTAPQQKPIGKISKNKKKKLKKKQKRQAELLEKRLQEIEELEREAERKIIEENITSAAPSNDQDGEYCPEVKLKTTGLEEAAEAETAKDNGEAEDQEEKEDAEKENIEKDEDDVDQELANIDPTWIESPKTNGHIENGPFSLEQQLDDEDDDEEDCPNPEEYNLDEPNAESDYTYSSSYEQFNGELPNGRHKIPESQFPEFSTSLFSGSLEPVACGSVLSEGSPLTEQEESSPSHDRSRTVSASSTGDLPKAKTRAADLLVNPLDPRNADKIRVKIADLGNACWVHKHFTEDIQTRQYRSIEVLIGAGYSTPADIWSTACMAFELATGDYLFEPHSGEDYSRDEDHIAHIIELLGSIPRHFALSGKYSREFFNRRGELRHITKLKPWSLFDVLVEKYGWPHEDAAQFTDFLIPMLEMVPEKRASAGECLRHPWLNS
IRAK4(h), sequence (Q9NWZ3 whole entry): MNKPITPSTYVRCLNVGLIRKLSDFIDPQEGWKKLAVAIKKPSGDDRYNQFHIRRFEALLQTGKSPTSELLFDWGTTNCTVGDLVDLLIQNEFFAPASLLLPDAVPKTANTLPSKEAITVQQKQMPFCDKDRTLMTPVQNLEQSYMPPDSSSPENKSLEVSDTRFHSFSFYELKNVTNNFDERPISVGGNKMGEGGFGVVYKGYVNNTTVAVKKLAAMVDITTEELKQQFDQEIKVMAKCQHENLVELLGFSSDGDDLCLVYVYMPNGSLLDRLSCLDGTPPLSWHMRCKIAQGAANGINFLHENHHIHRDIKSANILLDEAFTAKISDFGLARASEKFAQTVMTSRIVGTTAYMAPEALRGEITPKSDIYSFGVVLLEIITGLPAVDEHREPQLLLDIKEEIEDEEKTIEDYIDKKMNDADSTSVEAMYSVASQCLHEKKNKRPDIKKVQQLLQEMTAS
T6 sequence (Q9BYT3 whole entry): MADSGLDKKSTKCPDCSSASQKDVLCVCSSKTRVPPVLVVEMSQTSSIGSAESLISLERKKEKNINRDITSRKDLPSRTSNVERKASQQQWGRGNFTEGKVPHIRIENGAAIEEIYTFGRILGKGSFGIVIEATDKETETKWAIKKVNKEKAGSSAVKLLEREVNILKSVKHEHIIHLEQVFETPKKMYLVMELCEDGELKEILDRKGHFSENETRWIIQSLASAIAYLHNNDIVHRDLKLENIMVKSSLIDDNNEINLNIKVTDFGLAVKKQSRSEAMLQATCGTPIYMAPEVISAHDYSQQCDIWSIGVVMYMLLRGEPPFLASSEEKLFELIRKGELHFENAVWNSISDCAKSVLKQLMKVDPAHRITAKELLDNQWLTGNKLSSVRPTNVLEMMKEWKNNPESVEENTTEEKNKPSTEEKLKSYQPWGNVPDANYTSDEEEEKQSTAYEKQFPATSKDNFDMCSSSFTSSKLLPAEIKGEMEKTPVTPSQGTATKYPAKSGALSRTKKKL
Ab1(m), sequence (P00520 whole entry): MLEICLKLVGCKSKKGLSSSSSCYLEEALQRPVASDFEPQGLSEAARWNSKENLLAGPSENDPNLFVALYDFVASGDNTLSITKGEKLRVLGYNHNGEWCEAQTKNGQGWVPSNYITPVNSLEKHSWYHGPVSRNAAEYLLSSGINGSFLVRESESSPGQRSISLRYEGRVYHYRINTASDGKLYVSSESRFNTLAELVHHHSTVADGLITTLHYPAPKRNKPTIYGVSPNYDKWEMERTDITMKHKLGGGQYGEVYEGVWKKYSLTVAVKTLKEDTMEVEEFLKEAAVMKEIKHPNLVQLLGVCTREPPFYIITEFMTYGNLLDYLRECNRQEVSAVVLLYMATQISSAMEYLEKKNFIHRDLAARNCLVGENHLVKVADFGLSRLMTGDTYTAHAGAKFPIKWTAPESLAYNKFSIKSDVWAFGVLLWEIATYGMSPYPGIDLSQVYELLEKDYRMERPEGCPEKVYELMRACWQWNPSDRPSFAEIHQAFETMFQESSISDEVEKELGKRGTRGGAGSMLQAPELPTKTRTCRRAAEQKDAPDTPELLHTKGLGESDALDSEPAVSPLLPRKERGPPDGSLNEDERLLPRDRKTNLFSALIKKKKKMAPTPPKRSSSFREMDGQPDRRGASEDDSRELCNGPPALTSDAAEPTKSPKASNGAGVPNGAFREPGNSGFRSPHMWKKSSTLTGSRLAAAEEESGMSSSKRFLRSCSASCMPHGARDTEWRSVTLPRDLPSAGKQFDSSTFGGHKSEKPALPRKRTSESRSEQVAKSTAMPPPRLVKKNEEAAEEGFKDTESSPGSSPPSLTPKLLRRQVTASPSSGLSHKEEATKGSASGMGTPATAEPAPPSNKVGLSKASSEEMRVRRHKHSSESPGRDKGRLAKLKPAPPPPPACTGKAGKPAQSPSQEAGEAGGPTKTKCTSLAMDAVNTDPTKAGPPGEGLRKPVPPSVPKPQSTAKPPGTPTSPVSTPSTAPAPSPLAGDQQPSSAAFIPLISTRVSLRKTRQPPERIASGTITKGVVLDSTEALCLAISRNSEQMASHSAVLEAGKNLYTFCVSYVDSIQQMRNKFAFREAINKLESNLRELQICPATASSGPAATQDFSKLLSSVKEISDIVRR

With `Cc1cc2c(F)c(Oc3nc(Nc4cc(C5CC5)[nH]n4)cc(N4CCN(C)CC4)n3)cc(F)c2[nH]1` [NTW-3475], the Activity % in the experiment on c-RAF(h) was 94%; in the experiment on MLCK(h) it was 110%; in the experiment on CK1(y), 100%; at Src(T341M)(h), 1%; on IRAK4(h) it was 67%; at NEK11(h), 102%. Further, the Activity % on SRPK2(h) is 99%; at LKB1(h), 98%; on SGK3(h) it was 102%; at cKit(V654A)(h), 32%; at Ab1(m), −2%; on SAPK2b(h), 103%. In addition, the Activity % at CDK1/cyclinB(h) is 81%; at EphB2(h) it was 21%; on PhKγ2(h), 77%; on STK33(h) it was 101%; at Lck(h) it was −8%; on MKK7β(h) it was 97%. Besides, in experiment [1], the anti-tumor effect result is given as “anti-tumor effect”. In addition, the “anti-tumor effect against pancreatic carcinoma cells” value in [2] (25, 50 mg/kg, 5-day on, two-day off for two cycles) was “strong anti-tumor effect”. In [2] (in combination with Abraxane), the “anti-tumor effect of the combination” value is “anti-tumor effect”. Moreover, the “anti-tumor effect against AML” value in experiment [3] was “strong anti-tumor effect”. Further, the “anti-tumor effect against CML” value in experiment [4] is “strong anti-tumor effect”.
